# US8546392B2, “17Beta-hydroxysteroid dehydrogenase type 1 inhibitors for the treatment of hormone-related diseases” (Universitaet des Saarlandes, priority 2008, dated 2013)
# Experiments:
# [1] = target: 17β-HSD1 (Homo sapiens (Human), UniProt P14061); experiment: 17β-HSD1 test assay (recombinant protein from Sf9 insect cells, 3H-estrone/NADPH); format: biochemical
# Method in brief: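 Sf9-expressed recombinant enzyme (0.1 μg/ml) with 30 nM 3H-estrone and 1 mM NADPH in 20 mM KH2PO4 pH 7.4, 30 min at RT; inhibitor at 1 μM or 100 nM, 1% DMSO final. Quenched with TCA; conversion measured by reversed-phase HPLC with flow scintillation detection.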
# [2] = target: 17β-HSD2 (Homo sapiens (Human), UniProt P37059); experiment: 17β-HSD2 test assay (recombinant protein from Sf9 insect cells, 3H-estradiol/NAD+); format: biochemical
# Chain of 17β-HSD2 (P37059 whole entry): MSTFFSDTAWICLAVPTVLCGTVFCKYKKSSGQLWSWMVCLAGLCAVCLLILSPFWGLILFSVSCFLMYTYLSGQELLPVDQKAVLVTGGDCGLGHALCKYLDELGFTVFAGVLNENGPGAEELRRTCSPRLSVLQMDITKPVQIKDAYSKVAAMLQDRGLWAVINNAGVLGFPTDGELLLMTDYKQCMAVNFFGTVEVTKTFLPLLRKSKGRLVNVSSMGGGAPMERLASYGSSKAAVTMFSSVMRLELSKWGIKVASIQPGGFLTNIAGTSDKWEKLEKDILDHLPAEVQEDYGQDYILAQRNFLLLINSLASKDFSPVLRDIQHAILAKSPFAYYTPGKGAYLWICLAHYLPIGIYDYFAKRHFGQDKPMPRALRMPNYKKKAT
# Experimental: Recombinant protein obtained from Sf9 insect cells (0.1 μg/ml) is incubated with 20 mM KH2PO4, pH 7.4, 30 nM ^3H-estradiol and 1 mM NAD+ for 30 min at RT in the presence of the potential inhibitor in a concentration of 1 μM or 100 nM. The stock solutions of the compounds are prepared in DMSO so that the final concentration of DMSO in the sample is 1%. After the prescribed incubation time, the reaction is quenched by adding trichloroacetic acid (10% final concentration). The samples are centrifuged in microtitration plates at 400 rpm for 10 min, and the supernatants are charged on a reversed-phase HPLC equipped with a Waters Symmetrie C18 column and
# Waters Sentry Guard column. The isocratic HPLC run is performed at RT with a flow rate of 1 ml/min and acetonitrile/water 48:52 as the eluent. The radioactivity was measured by means of a Packard Flow Scintillation Analyzer. The percent inhibition was calculated by means of the formulas stated above.
# [3] = CaCo-2 assay (transport experiments); format: in vitro ADME; settings: human, Caco-2; initial donor concentration 50 μM
# Experimental: (§1) Four reference compounds (atenolol, testosterone, ketoprofene and erythromycin) were employed in each assay for evaluating the transport properties of the CaCo-2 cells. The initial concentration of the compounds in the donor compartment was 50 μM (in buffer with 1% ethanol or DMSO). […] For glycoprotein P (P-gp) studies, bidirectional experiments were performed. The absorptive and secretory permeabilities (Papp(a-b) and Papp(b-a)) were determined. Thus, erythromycin was used as a substrate, and verapamil was used as an inhibitor of P-gp. Each experiment was performed in triplicate. The integrity of the monolayer was determined by means of TEER (transepithelial electric resistance) and the permeability for each assay was determined using Lucifer Yellow. All samples of the CaCo-2 transport experiments were analyzed by means of LC/MS/MS after dilution with buffer (1:1 with 2% acetic acid).
# [4] = tested on: CaCo-2 cells; experiment: CaCo-2 assay (transport experiments); format: in vitro ADME
# Experimental: as §1
# [5] = target: CYP2D6 (Homo sapiens (Human), UniProt P10635); experiment: P450 inhibition assay CYP2D6; format: biochemical; settings: read-out: IC50 (mean ± SD) [μM] CYP2D6
# Chain of CYP2D6 (P10635 whole entry): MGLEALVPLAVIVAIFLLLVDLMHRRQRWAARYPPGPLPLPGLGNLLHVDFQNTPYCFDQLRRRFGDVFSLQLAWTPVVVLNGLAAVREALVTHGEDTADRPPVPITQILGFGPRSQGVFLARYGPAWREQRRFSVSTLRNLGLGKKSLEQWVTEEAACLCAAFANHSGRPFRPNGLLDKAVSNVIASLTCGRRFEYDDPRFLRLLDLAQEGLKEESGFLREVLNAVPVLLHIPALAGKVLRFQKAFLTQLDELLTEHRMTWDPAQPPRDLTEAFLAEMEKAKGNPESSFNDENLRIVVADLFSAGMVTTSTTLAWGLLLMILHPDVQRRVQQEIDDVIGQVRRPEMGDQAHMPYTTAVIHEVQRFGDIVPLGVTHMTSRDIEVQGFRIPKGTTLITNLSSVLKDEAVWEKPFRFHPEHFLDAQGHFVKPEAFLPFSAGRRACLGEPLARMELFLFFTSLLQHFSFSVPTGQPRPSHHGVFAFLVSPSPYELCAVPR
# [6] = target: CYP3A4 (Homo sapiens (Human), UniProt P08684); experiment: P450 inhibition assay CYP3A4; format: biochemical; settings: read-out: IC50 (mean ± SD) [μM] CYP3A4
# Chain of CYP3A4 (P08684 whole entry): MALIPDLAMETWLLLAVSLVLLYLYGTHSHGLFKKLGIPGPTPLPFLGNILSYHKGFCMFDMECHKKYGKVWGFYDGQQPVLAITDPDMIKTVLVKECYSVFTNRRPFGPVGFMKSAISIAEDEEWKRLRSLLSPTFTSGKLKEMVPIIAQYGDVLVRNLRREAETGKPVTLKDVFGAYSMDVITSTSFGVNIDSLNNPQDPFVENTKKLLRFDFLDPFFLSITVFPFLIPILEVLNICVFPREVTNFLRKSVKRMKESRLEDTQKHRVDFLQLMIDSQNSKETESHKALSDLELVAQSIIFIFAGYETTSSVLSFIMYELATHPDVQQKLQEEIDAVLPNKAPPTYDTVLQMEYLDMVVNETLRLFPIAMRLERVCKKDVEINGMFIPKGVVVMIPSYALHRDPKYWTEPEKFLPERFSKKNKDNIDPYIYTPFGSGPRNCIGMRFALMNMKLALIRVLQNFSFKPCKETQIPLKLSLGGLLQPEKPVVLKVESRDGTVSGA
# [7] = In vivo pharmacokinetics (rat), single oral administration; settings: single oral administration 50 mg/kg, male Wistar rats
# [8] = target: CYP1A2 (Homo sapiens (Human), UniProt P05177); experiment: P450 inhibition assay CYP1A2
# Chain of CYP1A2 (P05177 whole entry): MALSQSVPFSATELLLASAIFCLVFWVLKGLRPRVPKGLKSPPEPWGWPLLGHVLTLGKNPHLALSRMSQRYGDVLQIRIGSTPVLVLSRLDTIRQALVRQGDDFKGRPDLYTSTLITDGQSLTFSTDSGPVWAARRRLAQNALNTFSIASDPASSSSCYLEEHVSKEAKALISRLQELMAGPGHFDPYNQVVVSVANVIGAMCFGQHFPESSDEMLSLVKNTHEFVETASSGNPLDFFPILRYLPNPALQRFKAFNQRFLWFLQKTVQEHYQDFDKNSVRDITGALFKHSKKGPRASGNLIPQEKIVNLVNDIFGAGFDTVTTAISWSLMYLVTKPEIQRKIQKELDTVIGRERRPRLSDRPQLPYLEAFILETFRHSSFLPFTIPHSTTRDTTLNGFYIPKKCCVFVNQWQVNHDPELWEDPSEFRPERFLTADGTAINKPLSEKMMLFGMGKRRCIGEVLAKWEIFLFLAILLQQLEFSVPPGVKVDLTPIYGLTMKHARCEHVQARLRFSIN
# [9] = target: CYP2B6 (Homo sapiens (Human), UniProt P20813); experiment: P450 inhibition assay CYP2B6; settings: read-out: IC50 (mean ± SD) [μM] CYP2B6
# Chain of CYP2B6 (P20813 whole entry): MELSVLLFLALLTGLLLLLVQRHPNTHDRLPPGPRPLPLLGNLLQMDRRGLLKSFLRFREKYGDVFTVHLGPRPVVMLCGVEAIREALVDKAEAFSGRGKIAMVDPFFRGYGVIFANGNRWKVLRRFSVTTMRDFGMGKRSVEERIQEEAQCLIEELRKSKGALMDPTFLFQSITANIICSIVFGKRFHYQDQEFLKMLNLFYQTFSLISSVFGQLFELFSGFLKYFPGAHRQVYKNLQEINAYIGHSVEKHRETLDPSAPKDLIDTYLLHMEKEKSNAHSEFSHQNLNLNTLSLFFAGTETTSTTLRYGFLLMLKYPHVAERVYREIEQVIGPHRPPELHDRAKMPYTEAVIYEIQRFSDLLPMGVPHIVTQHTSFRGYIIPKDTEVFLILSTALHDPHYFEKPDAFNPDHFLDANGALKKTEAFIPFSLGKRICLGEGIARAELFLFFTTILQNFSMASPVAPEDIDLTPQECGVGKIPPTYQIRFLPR
# [10] = target: CYP2C9 (Homo sapiens (Human), UniProt P11712); experiment: P450 inhibition assay CYP2C9; settings: read-out: IC50 (mean ± SD) [μM] CYP2C9
# Chain of CYP2C9 (P11712 whole entry): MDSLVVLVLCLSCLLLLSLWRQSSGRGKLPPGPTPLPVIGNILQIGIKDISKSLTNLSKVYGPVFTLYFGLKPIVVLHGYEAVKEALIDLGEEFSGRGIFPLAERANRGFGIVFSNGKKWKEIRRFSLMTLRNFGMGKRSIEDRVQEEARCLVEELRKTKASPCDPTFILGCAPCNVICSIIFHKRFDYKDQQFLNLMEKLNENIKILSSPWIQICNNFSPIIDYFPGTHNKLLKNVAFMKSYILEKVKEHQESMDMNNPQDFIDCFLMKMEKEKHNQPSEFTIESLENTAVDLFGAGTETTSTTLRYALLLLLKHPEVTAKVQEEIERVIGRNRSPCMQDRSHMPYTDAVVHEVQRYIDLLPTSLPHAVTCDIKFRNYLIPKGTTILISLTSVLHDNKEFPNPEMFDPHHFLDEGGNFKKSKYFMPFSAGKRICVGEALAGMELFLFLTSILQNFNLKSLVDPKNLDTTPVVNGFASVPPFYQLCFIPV
# [11] = target: CYP2C19 (Homo sapiens (Human), UniProt P33261); experiment: P450 inhibition assay CYP2C19; settings: read-out: IC50 (mean ± SD) [μM] CYP2C19
# Chain of CYP2C19 (P33261 whole entry): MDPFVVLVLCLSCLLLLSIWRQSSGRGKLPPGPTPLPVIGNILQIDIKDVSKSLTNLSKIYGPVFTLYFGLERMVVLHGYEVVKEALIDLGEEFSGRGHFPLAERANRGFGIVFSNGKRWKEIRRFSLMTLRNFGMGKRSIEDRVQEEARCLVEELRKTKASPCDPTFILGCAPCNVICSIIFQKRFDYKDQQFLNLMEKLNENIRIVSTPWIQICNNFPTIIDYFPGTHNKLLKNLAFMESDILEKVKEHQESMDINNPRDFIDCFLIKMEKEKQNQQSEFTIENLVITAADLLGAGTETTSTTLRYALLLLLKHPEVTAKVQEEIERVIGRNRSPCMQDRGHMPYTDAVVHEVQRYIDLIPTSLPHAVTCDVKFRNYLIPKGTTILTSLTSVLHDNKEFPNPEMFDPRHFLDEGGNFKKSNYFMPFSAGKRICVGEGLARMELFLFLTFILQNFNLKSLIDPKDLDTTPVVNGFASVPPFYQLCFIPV
# [12] = Test for metabolic stability, liver microsomes
# Experimental: The assay was performed with liver microsomes of rats.
# The incubation solution (180 μl) consists of 90 μl of a microsomal suspension of 0.33 mg/ml protein in 100 mM phosphate buffer, pH 7.4, with 90 μl NADP-regenerating system (NADP: 1 mM, glucose-6-phosphate 5 mM, glucose-6-phosphate dehydrogenase: 5 U/ml, MgCl2 5 mM).
# The reaction is started by adding 20 μl of the compound to be tested in 20% ACN to the microsome/buffer mixture preincubated at 37° C. After 0, 15, 30 and 60 minutes, 200 μl of sample solution is withdrawn and subjected to ACN precipitation. The isolation of the compounds is effected by adding 200 μl ACN that contains the internal standard (1 μM) to 200 μl of sample solution and calibration standard. After shaking for 10 s and centrifugation at 4000 g, an aliquot of the supernatant is subjected to LC-MS/MS. Two controls are included, namely a positive control with 7-ethoxycoumarin as a reference to verify the microsomal enzyme activity, and a negative control in which microsomes are used that were heated for 25 minutes without a regenerating system, in order to ensure that the loss of substance is actually due to metabolization.
# The amount of compound in a sample is expressed as the percent fraction of the compound remaining as compared to time t=0 (100%). The percent fraction is plotted versus time.
# Chain of 17β-HSD1 (P14061 whole entry): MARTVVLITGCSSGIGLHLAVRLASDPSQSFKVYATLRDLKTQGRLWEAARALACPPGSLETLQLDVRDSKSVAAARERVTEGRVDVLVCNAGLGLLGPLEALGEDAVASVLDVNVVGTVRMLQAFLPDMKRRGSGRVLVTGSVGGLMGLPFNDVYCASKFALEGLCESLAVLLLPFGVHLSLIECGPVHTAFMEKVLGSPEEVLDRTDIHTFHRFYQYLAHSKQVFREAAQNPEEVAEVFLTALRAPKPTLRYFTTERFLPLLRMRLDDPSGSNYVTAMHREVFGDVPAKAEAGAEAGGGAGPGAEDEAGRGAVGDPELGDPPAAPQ
structure (smiles),measurement,setting,value
"Oc1cccc(-c2ccc3c(-c4cccnc4)c(O)ccc3c2)c1 [Compound 59, 6-(3-Hydroxyphenyl)-1-(pyridin-3-yl)naphthalene-2-ol]",inhibition at 1 µM,[1]; read-out: HSD 1 μM (% inhibition of HSD1),92.3%
same,inhibition at 0.1 µM,[1]; read-out: HSD1 100 nM (% inhibition),87.4%
same,inhibition at 0.1 µM,"[2]; read-out: HSD2 100 nM (% inhibition), inhibitor 100 nM",66.1%
same,inhibition at 1 µM,"[2]; read-out: HSD2 1 μM (% inhibition), inhibitor 1 μM",90.3%
same,"Papp at 180 min, 50 μM",[3],138 nm/s
same,mass balance [% ± SD],[4],29.9 ± 2.4%
same,Permeability,[4]; class in words,high
same,final basolateral concentration [μM ± SD],[4]; initial donor concentration 50 μM,11.0 ± 0.5 µM
same,IC50,[5],22.9 ± 1.85 µM
same,IC50,[6],0.221 ± 0.002 µM
same,AUC(0-t),"[7]; rat, plasma",0.203 µg·h/mL
same,Tmax,"[7]; rat, plasma",2 h
same,AUC(0-inf),"[7]; rat, plasma, extrapolated to ∞",0.203 µg·h/mL
same,t1/2z,[7],1.54 h
same,tz,[7],8.0 h
same,IC50,[8],0.014 µM
same,IC50,[9],5.34 ± 0.391 µM
same,IC50,[10],0.15 ± 0.03 µM
same,IC50,[11],0.88 ± 0.03 µM
same,Slope (−k),[12]; rat liver microsomes,−0.051
same,half-life,"[12]; rat, liver microsomes, pH 7.4",0.227 h
same,microsomal CLint,"[12]; rat, liver microsomes, pH 7.4",340 µL/min/mg
